Measured values published in BindingDB's records for doi:10.1021/acs.jmedchem.8b00990 (China Pharmaceutical University, 2019).

Tests used:
[1] = Inhibition of mouse PDL1 in mouse splenocytes assessed as rescue of splenocyte effector function
[2] = Inhibition of mouse PDL2 in mouse splenocytes assessed as rescue of splenocyte effector function

Question: Which results are given for `C[C@@H](O)[C@H](NC(=O)N[C@@H](CC(N)=O)C(=O)NNC(=O)[C@@H](N)CO)C(=O)O`?
Answer: EC50 [1]: 30 nM; EC50 [2]: 40 nM
